The values that follow come from ChEMBL document CHEMBL4419162, “FMO3 inhibitors for treating pain” (2013).

pIC50: −log10 of the molar value. The source made the active and inactive calls.

In assay [1] the test system is Rattus norvegicus. The assay is described as follows: Antinociceptive activity in Sprague-Dawley rat model of CFA-induced chronic inflammatory pain assessed as reduction in mechanical allodynia by measuring paw withdrawal threshold at 2 mg/kg, po administered as single dose and measured 30 mins to 24 hrs post dose by Von Frey's hairs assay. The format is functional, organism-based.

The test system of assay [2] is Rattus norvegicus. The assay can be described thus: Antinociceptive activity in Sprague-Dawley rat model of chronic constriction injury-induced mono-neuropathic pain assessed as reduction in mechanical allodynia by measuring paw withdrawal threshold at 20 mg/kg, po administered as single dose and measured 30 mins to 24 hrs post dose by Von Frey's hairs assay. The format is functional, organism-based.

Assay [3] relates to Rattus norvegicus. The assay is described as follows: Antinociceptive activity in Sprague-Dawley rat model of CFA-induced chronic inflammatory pain assessed as reduction in mechanical allodynia by measuring paw withdrawal threshold at 20 mg/kg, po administered as single dose and measured 30 mins to 24 hrs post dose by Von Frey's hairs assay. The format is functional, organism-based.

For assay [4], the system named is Rattus norvegicus. The assay can be described thus: Antinociceptive activity in Sprague-Dawley rat model of chronic constriction injury-induced mono-neuropathic pain assessed as reduction in mechanical allodynia by measuring paw withdrawal threshold at 2 mg/kg, po administered as single dose and measured 30 mins to 24 hrs post dose by Von Frey's hairs assay. The format is functional, organism-based.

Assay [5] relates to Rattus norvegicus. The assay can be described thus: Antinociceptive activity in Sprague-Dawley rat model of CFA-induced chronic inflammatory pain assessed as reduction in mechanical allodynia by measuring paw withdrawal threshold at 10 mg/kg, po administered as single dose and measured 30 mins to 24 hrs post dose by Von Frey's hairs assay. Type of assay: functional, organism-based.

The test system of assay [6] is Rattus norvegicus. The assay is described as follows: Antinociceptive activity in Sprague-Dawley rat model of CFA-induced chronic inflammatory pain assessed as reduction in mechanical allodynia by measuring paw withdrawal threshold at 1.8 mg/kg, po administered as single dose and measured 30 mins to 24 hrs post dose by Von Frey's hairs assay. The format is functional, organism-based.

Assay [7] has as its system Rattus norvegicus. The assay is described as follows: Antinociceptive activity in Sprague-Dawley rat model of chronic constriction injury-induced mono-neuropathic pain assessed as reduction in mechanical allodynia by measuring paw withdrawal threshold at 1.8 mg/kg, po administered as single dose and measured 30 mins to 24 hrs post dose by Von Frey's hairs assay. The format is functional, organism-based.

Assay [8] relates to Rattus norvegicus. The assay is described as follows: Antinociceptive activity in Sprague-Dawley rat model of CFA-induced chronic inflammatory pain assessed as reduction in mechanical allodynia by measuring paw withdrawal threshold at 500 mg/kg, po administered as single dose and measured 30 mins to 24 hrs post dose by Von Frey's hairs assay. The format is functional, organism-based.

In assay [9] the test system is Rattus norvegicus. The assay is described as follows: Antinociceptive activity in Sprague-Dawley rat model of chronic constriction injury-induced mono-neuropathic pain assessed as reduction in mechanical allodynia by measuring paw withdrawal threshold at 500 mg/kg, po administered as single dose and measured 30 mins to 24 hrs post dose by Von Frey's hairs assay. The format is functional, organism-based.

Assay [10] deals with Rattus norvegicus. The assay can be described thus: Antinociceptive activity in Sprague-Dawley rat model of chronic constriction injury-induced mono-neuropathic pain assessed as reduction in mechanical allodynia by measuring paw withdrawal threshold at 50 mg/kg, po administered as single dose and measured 30 mins to 24 hrs post dose by Von Frey's hairs assay. The format is functional, organism-based.

Assay [11] concerns Rattus norvegicus. The assay can be described thus: Antinociceptive activity in Sprague-Dawley rat model of CFA-induced chronic inflammatory pain assessed as reduction in mechanical allodynia by measuring paw withdrawal threshold at 50 mg/kg, po administered as single dose and measured 30 mins to 24 hrs post dose by Von Frey's hairs assay. Type of assay: functional, organism-based.

Assay [12] relates to Rattus norvegicus. The assay is described as follows: Antinociceptive activity in Sprague-Dawley rat model of chronic constriction injury-induced mono-neuropathic pain assessed as reduction in mechanical allodynia by measuring paw withdrawal threshold at 60 mg/kg, po administered as single dose and measured 30 mins to 24 hrs post dose by Von Frey's hairs assay. Type of assay: functional, organism-based.

The target of assay [13] is 3',5'-cyclic-AMP phosphodiesterase 4D (Homo sapiens, UniProt Q08499). The assay is described as follows: Inhibition of human PDE4D catalytic domain using [3H]-cAMP or [3H]-cGMP incubated for 30 mins by scintillation counting method.
Assay [14] concerns Rattus norvegicus. The assay is described as follows: Antinociceptive activity in Sprague-Dawley rat model of chronic constriction injury-induced mono-neuropathic pain assessed as reduction in mechanical allodynia by measuring paw withdrawal threshold at 200 mg/kg, po administered as single dose and measured 30 mins to 24 hrs post dose by Von Frey's hairs assay. The format is functional, organism-based.

The test system of assay [15] is Rattus norvegicus. The assay is described as follows: Antinociceptive activity in Sprague-Dawley rat model of CFA-induced chronic inflammatory pain assessed as reduction in mechanical allodynia by measuring paw withdrawal threshold at 60 mg/kg, po administered as single dose and measured 30 mins to 24 hrs post dose by Von Frey's hairs assay. Type of assay: functional, organism-based.

Assay [16] relates to Rattus norvegicus. The assay is described as follows: Antinociceptive activity in Sprague-Dawley rat model of CFA-induced chronic inflammatory pain assessed as reduction in mechanical allodynia by measuring paw withdrawal threshold at 200 mg/kg, po administered as single dose and measured 30 mins to 24 hrs post dose by Von Frey's hairs assay. Type of assay: functional, organism-based.

The subject of assay [17] is Rattus norvegicus. The assay is described as follows: Antinociceptive activity in Sprague-Dawley rat model of CFA-induced chronic inflammatory pain assessed as reduction in mechanical allodynia by measuring paw withdrawal threshold at 3 mg/kg, po administered as single dose and measured 30 mins to 24 hrs post dose by Von Frey's hairs assay. Type of assay: functional, organism-based.

The subject of assay [18] is Rattus norvegicus. The assay is described as follows: Antinociceptive activity in Sprague-Dawley rat model of chronic constriction injury-induced mono-neuropathic pain assessed as reduction in mechanical allodynia by measuring paw withdrawal threshold at 3 mg/kg, po administered as single dose and measured 30 mins to 24 hrs post dose by Von Frey's hairs assay. The format is functional, organism-based.

Sequence of 3',5'-cyclic-AMP phosphodiesterase 4D (Q08499 whole entry, the tested form may be a part): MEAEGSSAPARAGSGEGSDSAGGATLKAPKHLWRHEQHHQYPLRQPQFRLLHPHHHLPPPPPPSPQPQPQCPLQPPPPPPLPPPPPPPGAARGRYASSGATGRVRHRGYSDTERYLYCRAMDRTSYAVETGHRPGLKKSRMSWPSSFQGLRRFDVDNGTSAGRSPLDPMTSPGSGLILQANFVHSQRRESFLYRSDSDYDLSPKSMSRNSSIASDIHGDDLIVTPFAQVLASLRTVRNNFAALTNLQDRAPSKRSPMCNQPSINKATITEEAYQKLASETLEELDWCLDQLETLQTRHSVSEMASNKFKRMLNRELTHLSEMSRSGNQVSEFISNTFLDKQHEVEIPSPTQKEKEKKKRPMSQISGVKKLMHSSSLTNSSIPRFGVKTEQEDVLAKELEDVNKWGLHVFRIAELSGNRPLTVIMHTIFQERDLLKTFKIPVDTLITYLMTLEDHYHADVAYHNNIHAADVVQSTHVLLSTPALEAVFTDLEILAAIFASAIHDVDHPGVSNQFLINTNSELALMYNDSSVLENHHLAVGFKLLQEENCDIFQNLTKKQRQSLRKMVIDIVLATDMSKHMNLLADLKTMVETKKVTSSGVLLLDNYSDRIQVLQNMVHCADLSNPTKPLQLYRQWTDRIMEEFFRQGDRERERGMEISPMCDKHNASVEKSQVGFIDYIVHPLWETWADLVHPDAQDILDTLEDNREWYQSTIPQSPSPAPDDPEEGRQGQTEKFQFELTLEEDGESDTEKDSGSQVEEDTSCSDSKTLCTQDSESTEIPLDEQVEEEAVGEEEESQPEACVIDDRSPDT

On to `Nc1ncnc2c1ncn2CCOCP(=O)(O)O`, for which the outcome with Rattus norvegicus [1], in the assay on Rattus norvegicus [2], in the assay with Rattus norvegicus [3] and in the assay with Rattus norvegicus [4] was Active.

Consider `COc1ccc2c(c1)c(CC(=O)O)c(C)n2C(=O)c1ccc(Cl)cc1`, for which, in the assay on Rattus norvegicus [5], the outcome was Active.

`COc1cc(-c2ccc(=O)[nH]n2)ccc1OC(F)F`: the outcome in the assay on Rattus norvegicus [2] and in the assay with Rattus norvegicus [3] was Active.

On to `O=C(Nc1c(Cl)cncc1Cl)c1ccc(OC(F)F)c(OCC2CC2)c1`, for which the outcome in the assay with Rattus norvegicus [6] and in the assay with Rattus norvegicus [7] was Active.

For the molecule `C[C@H](Cn1cnc2c(N)ncnc21)OCP(=O)(O)O`, the outcome in the assay on Rattus norvegicus [8], with Rattus norvegicus [9], in the assay with Rattus norvegicus [10] and with Rattus norvegicus [11] was Active.

`CC(C)C[C@H](CN)CC(=O)O`: in the assay with Rattus norvegicus [12], the result was Active.

By pIC50 is commonly meant the negative decadic logarithm of the IC50, by convention in mol/L. Read a low pIC50 as a large IC50. For `COc1cc2c(cc1OC)[C@@H]1CN(C)CC[C@@H]1N=C2c1ccc(NS(=O)(=O)c2ccc(C)cc2)cc1`, the pIC50 in assay [13] is 7.52.

On to `COc1cc(Nc2c(C#N)cnc3cc(OCCCN4CCN(C)CC4)c(OC)cc23)c(Cl)cc1Cl`, for which the result in the assay with Rattus norvegicus [14], in the assay on Rattus norvegicus [12], in the assay with Rattus norvegicus [15] and in the assay on Rattus norvegicus [16] was Active.

Turning to `COc1ccc([C@]2(C#N)CC[C@@H](C(=O)O)CC2)cc1OC1CCCC1`, the result with Rattus norvegicus [17] and in the assay on Rattus norvegicus [18] was Active.
